Measurements published in US20040152747A1, “Thiazole compounds for treatment of neurodegenerative disorders” (Pfizer Inc, priority 2002, published 2004).

Tested on: gamma-secretase
Test: gamma-secretase activity in a solubilized membrane preparation (cell-free assay, McLendon et al.)
Type: biochemical
Conditions: read-out: IC50 activity for inhibiting gamma-secretase activity
Protocol: The activity of compounds of the invention in inhibiting gamma-secretase activity was determined in a solubilized membrane preparation generally according to the description provided in McLendon et al. Cell-free assays for γ-secretase activity, The FASEB Journal (Vol. 14, December 2000, pp. 2383-2386).

IC50: ~5 µM
Structure (SMILES): CCC(NC(=O)Cc1cc(F)cc(F)c1)C(=O)Nc1ncc(-c2ccc(Br)s2)s1 (stereo not shown) [Example 11, N-[5-(5-bromo-thiophen-2-yl)-thiazol-2-yl]-2-[2-(3,5-difluoro-phenyl)-acetylamino]-butyramide]
